The source of these data is patent US20100173972A1, “METHODS AND USES RELATED TO RHBDL4” (MEDICAL RESEARCH COUNCIL, priority 2007, published 2010).

“Also recorded” adds a separate entry of the source.

In data set [1] the test system is TGFalpha release, HEK293T cells. Description: Time course after PMA induction of HEK293T cells overexpressing pro-TGFalpha, with protease inhibitors. It is filed as cell-based, human. To be noted: DCI 100 μM; HEK293T; Bcl-XL co-expressed. Here is the method: Cell culture and cell-based rhomboid cleavage assay. Cells were propagated in DMEM supplemented with 10% fetal calf serum. COS-7 cells were transfected in 35 mm wells with FuGENE 6 (Roche) as described (7). In brief, 250 ng plasmid encoding the substrate (as indicated in the description of the figures), 25 ng for the rhomboid tested, 50 ng for the GRP receptor and empty plasmid to bring the total DNA to 1 μg was used. For protease titration, 2.5 ng to 250 ng plasmid coding RHBDL4 was used. HeLa and HEK293T were transfected with polyethyleneimine (linear, MW 25000; Polysciences) as described (32) using twice the amount of DNA as used with FuGENE. Transfection efficiency was monitored by co-transfection of pEGFP (Invitrogen). Sixteen hours post transfection, medium was replaced with serum-free medium containing 10 μM BB94 (British Biotech) unless otherwise stated. For activation of endogenous rhomboid activity, phorbol 12-myristate 13-acetate (PMA) (1 μM, from Sigma) or bombesin (100 nM, from Sigma) was added to the cell medium. For inhibitor studies, the indicated protease inhibitors (from Calbiochem), diluted from a stock solution in DMSO, were compared with a carrier only. Medium was harvested typically after 24 to 30 hours; for inhibitor studies using 3,4-Dichloroisocoumarin (DCI) a time course with 0 minutes, 30 minutes and 4 hours was performed (FIG. 4C). Cells were solubilized in SDS-sample buffer and analyzed by SDS-PAGE. EndoH (New England Biolabs) and PNGaseF (New England Biolabs) treatment of SDS-solubilized cell extracts was performed according to the manufacturers instructions. Conditioned media were centrifuged for 10 minutes at full speed in a microfuge to remove cell debris, and subsequently proteins in the supernatant were precipitated by adding trichloroacetic acid (TCA) to 10%. The precipitate was recovered by centrifugation, washed with acetone and dissolved in SDS-PAGE sample buffer and analyzed by SDS-PAGE. Alternatively to TCA precipitation, TGFalpha-H8 in conditioned medium was captured by metal-chelate chromatography using Ni-NTA agarose beads (Qiagen) in the presence of 20 mM imidazole at pH 8.0. Subsequently beads were washed with 20 mM Tris-Cl pH 8.0, 50 mM imidazole, eluted with SDS-sample buffer and analyzed by SDS-PAGE and Western blotting (see below). Typically, from a 35 mm tissue culture dish, 10% of cell extracts and 20% of tissue culture supernatant were loaded. To increase the sensitivity, for experiments shown in FIGS. 1C, 3E, 4A and 4C, five times the amount of the media fractions were loaded.
Western blotting. Proteins were analyzed by 4-20% Tris-Glycine gradient gels (Invitrogen) followed by Western blot analysis using either anti FLAG M2-HRP (1:1000; Sigma), anti HA antibody 16B12 (1:1000; Covance), anti actin antibody ab8227 (1:5000; Abcam) or affinity purified polyclonal rabbit antibody anti RHBDL4 (1:4000; see above). In order to detect the 6 kDa form of TGFalpha, proteins were transferred on PVDF membrane with 0.2 μm pore size (Millipore) and probed with 1:100 anti TGFalpha antibody 134A-2B3 (Oncogene). For the detection of phosphorylated EGFR, PVDF membranes were blocked in 3% BSA in TBS-Tween supplemented with 200 μM NaVO3. Protein was detected with anti phospho-EGFR antibody 9H2 (1:2000, Upstate). […] Bound antibodies were detected by incubation with secondary antibody (Santa Cruz Biotechnology) followed by enhanced chemiluminescence (Amersham Biosciences).

For a further data set, the system named is cells. Description: Toxicity of DCI to cells during TGFalpha release experiment. The settings on record: over several hours, similar time course as TGFalpha release. Type of data set: cell-based. An excerpt: A central prediction of our model is that the observed BB94-insensitive TGFalpha release would be inhibited by the serine protease inhibitor DCI, a rhomboid inhibitor. […] To help the cells survive, we expressed the antiapoptotic protein Bch XL. […] Overall, these experiments strongly support that EGFR transactivation is triggered by RHBDL4-catalysed shedding of pro-TGFalpha.
Cell culture and cell-based rhomboid cleavage assay. Cells were propagated in DMEM supplemented with 10% fetal calf serum. COS-7 cells were transfected in 35 mm wells with FuGENE 6 (Roche) as described (7). In brief, 250 ng plasmid encoding the substrate (as indicated in the description of the figures), 25 ng for the rhomboid tested, 50 ng for the GRP receptor and empty plasmid to bring the total DNA to 1 μg was used. For protease titration, 2.5 ng to 250 ng plasmid coding RHBDL4 was used. […] Transfection efficiency was monitored by co-transfection of pEGFP (Invitrogen). […] Cells were solubilized in SDS-sample buffer and analyzed by SDS-PAGE. […] The precipitate was recovered by centrifugation, washed with acetone and dissolved in SDS-PAGE sample buffer and analyzed by SDS-PAGE. […] Subsequently beads were washed with 20 mM Tris-Cl pH 8.0, 50 mM imidazole, eluted with SDS-sample buffer and analyzed by SDS-PAGE and Western blotting (see below). […]

The target in the next data set is T1, mouse RHBDL4 (Mus musculus, UniProt Q8BHC7).
T1 sequence (Q8BHC7 1-315): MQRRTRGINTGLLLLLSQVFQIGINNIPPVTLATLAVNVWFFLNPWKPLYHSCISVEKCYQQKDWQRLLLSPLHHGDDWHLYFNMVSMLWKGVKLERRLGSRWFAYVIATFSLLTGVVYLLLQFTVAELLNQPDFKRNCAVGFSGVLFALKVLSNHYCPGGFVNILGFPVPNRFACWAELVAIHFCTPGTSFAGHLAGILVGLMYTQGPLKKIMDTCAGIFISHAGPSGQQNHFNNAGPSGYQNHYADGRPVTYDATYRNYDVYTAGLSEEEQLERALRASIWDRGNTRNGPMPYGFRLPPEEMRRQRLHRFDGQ
The data set is described as follows: In vitro activity assay with recombinant mouse RHBDL4 (Gurken TMD substrate). Type of data set: biochemical. Also noted: His6 (C); made in house; host or cells: E. coli BL21-Gold(DE3) with pRARE2; Triton X-100 solubilised membrane fraction. The settings on record: Triton-X 100 solubilised E. coli membrane fraction; also run with mouse RHBDL1 and human RHBDL2. An excerpt: To produce recombinant RHBDL4, a RHBDL4-purification tag fusion protein is expressed and solubilised with detergent appropriate for in vitro activity assay. In this example, C-terminally His6-tagged mouse RHBDL4 is expressed in E. coli BL21-Gold(DE3) cells harbouring the expression vector and the extra plasmid pRARE2 (Novagen) as described for human RHBDL2 (Lemberg, 2005, EMBO vol 24 pp 464-472).
After the protein expression, cells are disrupted and membranes containing the recombinant RHBDL4 are harvested by centrifugation as had been described (Lemberg, 2005 above).
Subsequently the recombinant protein is solubilised with the detergent Triton-X 100 and tested for activity.
Radiolabelled substrate, such as the substrate TMD, is generated by cell-free in vitro translation using wheat germ extract and [35S]methionine as, had been described (Lemberg and Martoglio, 2003 Anal Biochem. vol 319 pp 327-31).
In this example a substrate corresponding to an N-terminal methionine plus residues 224 to 272 of Drosophila Gurken is used. […]
For the cleavage assay, 1-4 μl in vitro translation mix or 50-200 μg/ml recombinant substrate are added to a 40 μl-reaction containing recombinant RHBDL4 (e.g. about 1-5 μg) in 50 mM HEPES/NaOH, pH 7.4, 10% glycerol and 50 mM EDTA. Samples are incubated at 30° C. and subsequently the cleavage reaction is analyzed by SDS-PAGE as described (Lemberg, 2005 above). […]

Data set [2] addresses RHBDL4-processed extracellular TGFalpha (post-translationally modified higher MW forms), P01135.

Chain of RHBDL4-processed extracellular TGFalpha (post-translationally modified higher MW forms), P01135 (P01135 whole entry, looked up, tested part not stated): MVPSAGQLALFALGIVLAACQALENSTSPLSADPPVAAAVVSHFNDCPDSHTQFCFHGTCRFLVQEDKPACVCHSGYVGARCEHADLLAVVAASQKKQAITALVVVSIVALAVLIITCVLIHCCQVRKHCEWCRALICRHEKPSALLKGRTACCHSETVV

With `O=c1oc(Cl)c(Cl)c2ccccc12` [DCI, 3,4-Dichloroisocoumarin], the “Release of the 37 kDa form of TGFalpha in response to PMA” value in data set [1] was “inhibited; also recorded: strong and specific inhibitory effect”. The Toxicity to cells result with cells was “toxic to cells”. Moreover, the “Cleavage of Drosophila Gurken TMD substrate” value on mouse RHBDL4 is “inhibited”.

B1: recombinant mouse TACE (R&D Systems) (protein)
chain: RAEPNPLKNTCKLLVVADHRFYKYMGRGEESTTTNYLIELIDRVDDIYRNTSWDNAGFKGYGVQIEQIRILKSPQEVKPGERHFNMAKSFPNEEKDAWDVKMLLEQFSFDIAEEASKVCLAHLFTYQDFDMGTLGLAYVGSPRANSHGGVCPKAYYNPTVKKNIYLNSGLTSTKNYGKTILTKEADLVTTHELGHNFGAEHDPDGLAECAPNEDQGGKYVMYPIAVSGDHENNKMFSNCSKQSIYKTIESKAQECFQERSNKVCGNSRVDEGEECDPGIMYLNNDTCCNSDCTLKPGVQCSDRNSPCCKNCQFETAQKKCQEAINATCKGVSYCTGNSSECPPPGDAEDDTVCLDLGKCKAGKCIPFCKREQELESCACVDTDNSCKVCCRNLSGPCVPYVDAEQKNLFLRKGKPCTVGFCDMNGKCEKRVQDVIERFWDFIDQLSINTFGKFLADN
Regarding B1, in data set [2], the “in vitro TACE cleavage assay (Western blot)” value was “Recombinant TACE cleaved the post-translationally modified higher MW forms of TGFalpha. (filled triangles), generating the mature 6 kDa form”.
